Experimental data taken from PubChem BioAssay (NCI).
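Growth conditions: 96-well plates. Treatment: test compound, 48 hours, 5 concentrations. Analysis: linear interpolation between bracketing concentrations; unreached endpoints set to highest concentration. TGI is the concentration that stops growth completely.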

Key:
Assay in all cases: DTP human tumour cell line panel, 48 h
CAKI-1 renal = test system: CAKI-1 renal
NCI-H522 lung = test system: NCI-H522 lung
RPMI-8226 leukemia = test system: RPMI-8226 leukemia
KM12 colon = test system: KM12 colon
MCF7 breast = test system: MCF7 breast
OVCAR-3 ovarian = test system: OVCAR-3 ovarian
NCI/ADR-RES ovarian = test system: NCI/ADR-RES ovarian
SK-MEL-5 melanoma = test system: SK-MEL-5 melanoma
HCT-116 colon = test system: HCT-116 colon
SF-295 CNS = test system: SF-295 CNS
TK-10 renal = test system: TK-10 renal
MDA-MB-231 breast = test system: MDA-MB-231 breast
U251 CNS = test system: U251 CNS
UACC-62 melanoma = test system: UACC-62 melanoma
IGROV1 ovarian = test system: IGROV1 ovarian
T-47D breast = test system: T-47D breast
ACHN renal = test system: ACHN renal
SR leukemia = test system: SR leukemia
PC-3 prostate = test system: PC-3 prostate
SK-MEL-2 melanoma = test system: SK-MEL-2 melanoma
A549 NSCLC = test system: A549 NSCLC
CCRF-CEM leukemia = test system: CCRF-CEM leukemia
SK-MEL-28 melanoma = test system: SK-MEL-28 melanoma
SK-OV-3 ovarian = test system: SK-OV-3 ovarian
EKVX NSCLC = test system: EKVX NSCLC
MDA-MB-435 = test system: MDA-MB-435
HCT-15 colon = test system: HCT-15 colon
UACC-257 melanoma = test system: UACC-257 melanoma
OVCAR-5 ovarian = test system: OVCAR-5 ovarian
HS 578T breast = test system: HS 578T breast
MALME-3M melanoma = test system: MALME-3M melanoma
NCI-H23 lung = test system: NCI-H23 lung
OVCAR-8 ovarian = test system: OVCAR-8 ovarian
SF-539 CNS = test system: SF-539 CNS
LOX IMVI melanoma = test system: LOX IMVI melanoma
OVCAR-4 ovarian = test system: OVCAR-4 ovarian
SNB-75 CNS = test system: SNB-75 CNS
A498 renal = test system: A498 renal
HT29 colon = test system: HT29 colon
K-562 leukemia = test system: K-562 leukemia
COLO 205 colon = test system: COLO 205 colon
SNB-19 CNS = test system: SNB-19 CNS
SF-268 CNS = test system: SF-268 CNS
HOP-92 NSCLC = test system: HOP-92 NSCLC
BT-549 breast = test system: BT-549 breast
MOLT-4 leukemia = test system: MOLT-4 leukemia
HL-60(TB) leukemia = test system: HL-60(TB) leukemia
HOP-62 NSCLC = test system: HOP-62 NSCLC
RXF 393 renal = test system: RXF 393 renal
M14 melanoma = test system: M14 melanoma
SN12C renal = test system: SN12C renal
MDA-N = test system: MDA-N
786-0 renal = test system: 786-0 renal
NCI-H460 lung = test system: NCI-H460 lung
SW-620 colon = test system: SW-620 colon
UO-31 renal = test system: UO-31 renal
NCI-H226 lung = test system: NCI-H226 lung
HCC-2998 colon = test system: HCC-2998 colon
DU-145 prostate = test system: DU-145 prostate

CCOC(=S)SCC(=O)O
TGI (CAKI-1 renal): > 100 µM | TGI (NCI-H522 lung): > 100 µM | TGI (RPMI-8226 leukemia): > 100 µM | TGI (KM12 colon): > 100 µM | TGI (MCF7 breast): > 100 µM | TGI (OVCAR-3 ovarian): > 100 µM | TGI (NCI/ADR-RES ovarian): > 100 µM | TGI (SK-MEL-5 melanoma): > 100 µM | TGI (HCT-116 colon): > 100 µM | TGI (SF-295 CNS): > 100 µM | TGI (TK-10 renal): > 100 µM | TGI (MDA-MB-231 breast): > 100 µM | TGI (U251 CNS): > 100 µM | TGI (UACC-62 melanoma): > 100 µM | TGI (IGROV1 ovarian): > 100 µM | TGI (T-47D breast): > 100 µM | TGI (ACHN renal): > 100 µM | TGI (SR leukemia): > 100 µM | TGI (PC-3 prostate): > 100 µM | TGI (SK-MEL-2 melanoma): > 100 µM | TGI (A549 NSCLC): > 100 µM | TGI (CCRF-CEM leukemia): 26.6 µM | TGI (SK-MEL-28 melanoma): > 100 µM | TGI (SK-OV-3 ovarian): > 100 µM | TGI (EKVX NSCLC): > 100 µM | TGI (MDA-MB-435): > 100 µM | TGI (HCT-15 colon): > 100 µM | TGI (UACC-257 melanoma): > 100 µM | TGI (OVCAR-5 ovarian): > 100 µM | TGI (HS 578T breast): > 100 µM | TGI (MALME-3M melanoma): > 100 µM | TGI (NCI-H23 lung): > 100 µM | TGI (OVCAR-8 ovarian): > 100 µM | TGI (SF-539 CNS): > 100 µM | TGI (LOX IMVI melanoma): > 100 µM | TGI (OVCAR-4 ovarian): > 100 µM | TGI (SNB-75 CNS): > 100 µM | TGI (A498 renal): > 100 µM | TGI (HT29 colon): > 100 µM | TGI (K-562 leukemia): > 100 µM | TGI (COLO 205 colon): > 100 µM | TGI (SNB-19 CNS): > 100 µM | TGI (SF-268 CNS): > 100 µM | TGI (HOP-92 NSCLC): > 100 µM | TGI (BT-549 breast): > 100 µM | TGI (MOLT-4 leukemia): > 100 µM | TGI (HL-60(TB) leukemia): 5.74 µM | TGI (HOP-62 NSCLC): > 100 µM | TGI (RXF 393 renal): > 100 µM | TGI (M14 melanoma): > 100 µM | TGI (SN12C renal): > 100 µM | TGI (MDA-N): > 100 µM | TGI (786-0 renal): > 100 µM | TGI (NCI-H460 lung): > 100 µM | TGI (SW-620 colon): > 100 µM | TGI (UO-31 renal): > 100 µM | TGI (NCI-H226 lung): > 100 µM

CCCCOC(=O)Nc1ccc(S(=O)(=O)Nc2ccccc2Cl)cc1
TGI (CAKI-1 renal): 44.5 µM | TGI (NCI-H522 lung): 49.3 µM | TGI (RPMI-8226 leukemia): 36.8 µM | TGI (KM12 colon): 62.9 µM | TGI (MCF7 breast): 42.1 µM | TGI (OVCAR-3 ovarian): 44.3 µM | TGI (NCI/ADR-RES ovarian): 43.4 µM | TGI (SK-MEL-5 melanoma): 24.3 µM | TGI (HCT-116 colon): 41.6 µM | TGI (SF-295 CNS): 32.9 µM | TGI (TK-10 renal): 46.6 µM | TGI (MDA-MB-231 breast): 42 µM | TGI (U251 CNS): 36 µM | TGI (UACC-62 melanoma): 32.7 µM | TGI (IGROV1 ovarian): 49 µM | TGI (T-47D breast): 87.1 µM | TGI (ACHN renal): 65.8 µM | TGI (SR leukemia): 26.8 µM | TGI (PC-3 prostate): 58.4 µM | TGI (SK-MEL-2 melanoma): 38.8 µM | TGI (A549 NSCLC): > 100 µM | TGI (CCRF-CEM leukemia): 57.3 µM | TGI (SK-MEL-28 melanoma): 36.2 µM | TGI (SK-OV-3 ovarian): 33.8 µM | TGI (EKVX NSCLC): 57 µM | TGI (MDA-MB-435): 36 µM | TGI (HCT-15 colon): 44.9 µM | TGI (UACC-257 melanoma): 98.4 µM | TGI (OVCAR-5 ovarian): 55.4 µM | TGI (HS 578T breast): 53.8 µM | TGI (MALME-3M melanoma): 52.5 µM | TGI (NCI-H23 lung): 77.7 µM | TGI (OVCAR-8 ovarian): 40 µM | TGI (SF-539 CNS): 32.7 µM | TGI (LOX IMVI melanoma): 34.7 µM | TGI (OVCAR-4 ovarian): 41.2 µM | TGI (HCC-2998 colon): 27.5 µM | TGI (A498 renal): 27.8 µM | TGI (HT29 colon): 35.9 µM | TGI (K-562 leukemia): 43.1 µM | TGI (COLO 205 colon): 45.2 µM | TGI (SNB-19 CNS): 49.8 µM | TGI (SF-268 CNS): 36.5 µM | TGI (HOP-92 NSCLC): 30 µM | TGI (DU-145 prostate): > 100 µM | TGI (BT-549 breast): 39.2 µM | TGI (MOLT-4 leukemia): 51.5 µM | TGI (HL-60(TB) leukemia): 59.5 µM | TGI (HOP-62 NSCLC): 37.7 µM | TGI (RXF 393 renal): 55.9 µM | TGI (M14 melanoma): 37.7 µM | TGI (SN12C renal): 48.8 µM | TGI (MDA-N): 33.8 µM | TGI (786-0 renal): 41.8 µM | TGI (NCI-H460 lung): 40.1 µM | TGI (SW-620 colon): 31.3 µM | TGI (UO-31 renal): 80 µM

CCN(CC)C(=S)N/N=C/c1cc([N+](=O)[O-])ccc1O
TGI (NCI-H522 lung): 17.6 µM | TGI (KM12 colon): > 100 µM | TGI (MCF7 breast): 7.05 µM | TGI (OVCAR-3 ovarian): 13.3 µM | TGI (NCI/ADR-RES ovarian): 13.9 µM | TGI (SK-MEL-5 melanoma): 8.94 µM | TGI (HCT-116 colon): 12 µM | TGI (SF-295 CNS): > 100 µM | TGI (TK-10 renal): 37.1 µM | TGI (MDA-MB-231 breast): 30.4 µM | TGI (U251 CNS): > 100 µM | TGI (UACC-62 melanoma): 15.4 µM | TGI (IGROV1 ovarian): 16.7 µM | TGI (T-47D breast): 39.4 µM | TGI (ACHN renal): 25.1 µM | TGI (SR leukemia): 25.6 µM | TGI (PC-3 prostate): 78 µM | TGI (SK-MEL-2 melanoma): 65.6 µM | TGI (A549 NSCLC): 54 µM | TGI (CCRF-CEM leukemia): 8.06 µM | TGI (SK-MEL-28 melanoma): > 100 µM | TGI (SK-OV-3 ovarian): 16.3 µM | TGI (EKVX NSCLC): 78.9 µM | TGI (MDA-MB-435): 76.9 µM | TGI (HCT-15 colon): 31.6 µM | TGI (UACC-257 melanoma): 32.2 µM | TGI (OVCAR-5 ovarian): > 100 µM | TGI (HS 578T breast): 95.7 µM | TGI (MALME-3M melanoma): 23.3 µM | TGI (NCI-H23 lung): 28.9 µM | TGI (OVCAR-8 ovarian): 45.3 µM | TGI (SF-539 CNS): 28.3 µM | TGI (LOX IMVI melanoma): 18.5 µM | TGI (OVCAR-4 ovarian): 19.1 µM | TGI (SNB-75 CNS): 72.7 µM | TGI (HCC-2998 colon): 40.3 µM | TGI (A498 renal): 7.47 µM | TGI (HT29 colon): > 100 µM | TGI (K-562 leukemia): 18.1 µM | TGI (COLO 205 colon): 18.1 µM | TGI (SNB-19 CNS): 73 µM | TGI (SF-268 CNS): 57.5 µM | TGI (DU-145 prostate): > 100 µM | TGI (BT-549 breast): 33.2 µM | TGI (MOLT-4 leukemia): 25.1 µM | TGI (HL-60(TB) leukemia): 6.08 µM | TGI (HOP-62 NSCLC): > 100 µM | TGI (RXF 393 renal): 51.3 µM | TGI (M14 melanoma): 29.1 µM | TGI (SN12C renal): 25.6 µM | TGI (MDA-N): > 100 µM | TGI (786-0 renal): 68.9 µM | TGI (NCI-H460 lung): 24.8 µM | TGI (SW-620 colon): > 100 µM | TGI (UO-31 renal): > 100 µM | TGI (NCI-H226 lung): 12.6 µM
